Assay results published in ChEMBL document CHEMBL1201862, “PubChem BioAssay data set” (2004).
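Where inhibition never reached the appropriate level, the endpoint shown equals the highest concentration tested. Otherwise, values were interpolated linearly from a five-concentration, 48-hour dose response in 96-well plates. Abbreviation: GI50, concentration required for 50% inhibition of growth.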 Activity calls are given as the source filed them. Rule as the data show it: active = GI50 up to about 1.1 µM and inactive = higher.

Key:
Assay in all cases: NCI anticancer screen, dose series, 48 h
NCI-H23 = test system: NCI-H23
EKVX = test system: EKVX
SK-MEL-5 = test system: SK-MEL-5
U-251 = test system: U-251
SK-MEL-2 = test system: SK-MEL-2
Malme-3M = test system: Malme-3M
TK-10 = test system: TK-10
UACC-257 = test system: UACC-257
M14 = test system: M14
HOP-92 = test system: HOP-92
SR = test system: SR
A498 = test system: A498
SK-OV-3 = test system: SK-OV-3
RPMI-8226 = test system: RPMI-8226
HT-29 = test system: HT-29
UACC-62 = test system: UACC-62
NCI/ADR-RES = test system: NCI/ADR-RES
HCT-116 = test system: HCT-116
SW-620 = test system: SW-620
K562 = test system: K562
CCRF-CEM = test system: CCRF-CEM
MCF7 = test system: MCF7
SF-268 = test system: SF-268
T47D = test system: T47D
SF-295 = test system: SF-295
NCI-H460 = test system: NCI-H460
MDA-MB-435 = test system: MDA-MB-435
A549 = test system: A549
PC-3 = test system: PC-3
OVCAR-3 = test system: OVCAR-3
HOP-62 = test system: HOP-62
BT-549 = test system: BT-549
MOLT-4 = test system: MOLT-4
OVCAR-8 = test system: OVCAR-8
SNB-75 = test system: SNB-75
SK-MEL-28 = test system: SK-MEL-28
RXF 393 = test system: RXF 393
DU-145 = test system: DU-145
SNB-19 = test system: SNB-19
NCI-H522 = test system: NCI-H522
HL-60 = test system: HL-60
KM12 = test system: KM12
OVCAR-4 = test system: OVCAR-4
SN12C = test system: SN12C
Hs-578T = test system: Hs-578T
CAKI-1 = test system: CAKI-1
LOX IMVI = test system: LOX IMVI
786-0 = test system: 786-0
NCI-H226 = test system: NCI-H226
UO-31 = test system: UO-31
HCT-15 = test system: HCT-15
SF-539 = test system: SF-539
IGROV-1 = test system: IGROV-1
ACHN = test system: ACHN
HCC 2998 = test system: HCC 2998
COLO 205 = test system: COLO 205
OVCAR-5 = test system: OVCAR-5
MDA-MB-231 = test system: MDA-MB-231

Measured: GI50

O=S1(=O)c2cnccc2N=C(NCc2ccccc2)N1c1ccccc1
74.5 µM: HCT-15
inactive: NCI-H23 64.3 µM | EKVX > 100 µM | SK-MEL-5 55.5 µM | U-251 98.2 µM | SK-MEL-2 83.2 µM | Malme-3M > 100 µM | TK-10 30.1 µM | UACC-257 > 100 µM | M14 > 100 µM | HOP-92 57.5 µM | SR 58.6 µM | A498 > 100 µM | SK-OV-3 > 100 µM | RPMI-8226 20.6 µM | HT-29 81.1 µM | UACC-62 46.7 µM | NCI/ADR-RES 68.1 µM | HCT-116 73.8 µM | SW-620 > 100 µM | K562 > 100 µM | CCRF-CEM 41 µM | MCF7 54.5 µM | SF-268 > 100 µM | T47D 35.8 µM | SF-295 89.1 µM | NCI-H460 49.7 µM | MDA-MB-435 92.3 µM | A549 > 100 µM | PC-3 75.3 µM | OVCAR-3 45.7 µM | HOP-62 > 100 µM | BT-549 > 100 µM | MOLT-4 34.9 µM | OVCAR-8 78 µM | SNB-75 69.5 µM | SK-MEL-28 > 100 µM | RXF 393 > 100 µM | DU-145 67.1 µM | SNB-19 > 100 µM | NCI-H522 42.1 µM | HL-60 41.4 µM | KM12 > 100 µM | OVCAR-4 > 100 µM | SN12C 71.9 µM | Hs-578T 58.3 µM | CAKI-1 > 100 µM | LOX IMVI > 100 µM | 786-0 > 100 µM | NCI-H226 > 100 µM | UO-31 > 100 µM | SF-539 > 100 µM | IGROV-1 55.1 µM | ACHN 36.7 µM | HCC 2998 67.1 µM | COLO 205 61.9 µM | OVCAR-5 > 100 µM

CC12CC3c4ccccc4CN1C3(c1ccccc1)OC2=O (configuration not stated)
inactive: NCI-H23 > 100 µM | EKVX > 100 µM | SK-MEL-5 > 100 µM | U-251 > 100 µM | SK-MEL-2 > 100 µM | Malme-3M > 100 µM | TK-10 > 100 µM | UACC-257 > 100 µM | M14 > 100 µM | A498 > 100 µM | SK-OV-3 > 100 µM | HT-29 > 100 µM | UACC-62 > 100 µM | NCI/ADR-RES > 100 µM | HCT-116 > 100 µM | SW-620 > 100 µM | CCRF-CEM > 100 µM | SF-268 > 100 µM | T47D > 100 µM | SF-295 > 100 µM | MDA-MB-435 > 100 µM | A549 > 100 µM | PC-3 > 100 µM | HOP-62 > 100 µM | BT-549 > 100 µM | MOLT-4 > 100 µM | OVCAR-8 > 100 µM | SNB-75 > 100 µM | SK-MEL-28 > 100 µM | RXF 393 > 100 µM | DU-145 > 100 µM | MDA-MB-231 > 100 µM | SNB-19 > 100 µM | NCI-H522 > 100 µM | HL-60 > 100 µM | KM12 > 100 µM | OVCAR-4 > 100 µM | SN12C > 100 µM | Hs-578T > 100 µM | CAKI-1 > 100 µM | LOX IMVI > 100 µM | 786-0 > 100 µM | NCI-H226 > 100 µM | UO-31 > 100 µM | SF-539 > 100 µM | IGROV-1 > 100 µM | ACHN > 100 µM | COLO 205 > 100 µM | OVCAR-5 > 100 µM
> 100 µM: HCT-15

O=C1N(c2ccccc2)C2(c3ccccc3)CC3CCCC13S2 (configuration not stated)
65.3 µM: HCT-15
inactive: NCI-H23 50.5 µM | EKVX 71.8 µM | SK-MEL-5 33.3 µM | U-251 49.5 µM | SK-MEL-2 14.4 µM | Malme-3M 40.9 µM | UACC-257 16.7 µM | M14 > 100 µM | HOP-92 67.5 µM | SR 26.4 µM | A498 75 µM | SK-OV-3 > 100 µM | RPMI-8226 27.5 µM | HT-29 42.8 µM | UACC-62 77.8 µM | NCI/ADR-RES 40.8 µM | HCT-116 46.6 µM | SW-620 50.7 µM | K562 38.7 µM | CCRF-CEM 43.3 µM | MCF7 42.1 µM | SF-268 58.1 µM | T47D 31.3 µM | SF-295 86.1 µM | MDA-MB-435 33.3 µM | A549 53 µM | PC-3 21.9 µM | OVCAR-3 55.5 µM | HOP-62 > 100 µM | BT-549 51.3 µM | MOLT-4 24.2 µM | OVCAR-8 > 100 µM | SK-MEL-28 > 100 µM | RXF 393 > 100 µM | DU-145 > 100 µM | MDA-MB-231 72.1 µM | SNB-19 > 100 µM | NCI-H522 23.7 µM | HL-60 26.2 µM | KM12 54.8 µM | OVCAR-4 27.8 µM | SN12C 96.2 µM | Hs-578T 57.9 µM | CAKI-1 > 100 µM | LOX IMVI 53.5 µM | 786-0 78.9 µM | NCI-H226 63.4 µM | UO-31 78.9 µM | SF-539 > 100 µM | IGROV-1 78 µM | ACHN > 100 µM | COLO 205 43 µM | OVCAR-5 > 100 µM
active: TK-10 0.249 µM
